Experimental data taken from the supplement of paper PMC10307832.

What was measured:
Test in all cases: relative viability (nuclei count vs DMSO), 5 days (fraction); higher = more cells survive
H3255 = system: H3255
How it was run: (§1)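 Lung cancer cell lines in 1536-well plates were dosed by pin tool the day after seeding, either with one drug alone or with a fixed anchor-drug dose plus five library-drug doses (not always all listed) in √10 steps. After 5 days, cells were fixed and their nuclei stained in one step (final 0.05% Triton X-100, 1% formaldehyde, 1 ug/ml Hoechst), then counted on 4× images. Relative viability is the nuclei count in treated wells divided by that in vehicle wells. Values are medians of duplicate plates.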

NCI-H2085 = system: NCI-H2085
How it was run: as §1

NCI-H2087 = system: NCI-H2087
How it was run: as §1

LXF-289 = system: LXF-289
How it was run: as §1

HCC-15 = system: HCC-15
How it was run: as §1

NCI-H1437 = system: NCI-H1437
How it was run: as §1

NCI-H23 = system: NCI-H23
How it was run: as §1

NCI-H661 = system: NCI-H661
How it was run: as §1

PC-14 = system: PC-14
How it was run: as §1

PC-3 [JPC-3] = system: PC-3 [JPC-3]
How it was run: as §1

NCI-H2228 = system: NCI-H2228
How it was run: as §1

NCI-H2009 = system: NCI-H2009
How it was run: as §1

HCC-366 = system: HCC-366
How it was run: as §1

NCI-H2342 = system: NCI-H2342
How it was run: as §1

LC-2-ad = system: LC-2-ad
How it was run: as §1

COR-L23 = system: COR-L23
How it was run: as §1

SK-MES-1 = system: SK-MES-1
How it was run: as §1

HCC-827 = system: HCC-827
How it was run: as §1

LCLC-103H = system: LCLC-103H
How it was run: as §1

NCI-H1975 = system: NCI-H1975
How it was run: as §1

NCI-H1666 = system: NCI-H1666
How it was run: as §1

UMC-11 = system: UMC-11
How it was run: as §1

CCNC(=O)c1noc(-c2cc(C(C)C)c(O)cc2O)c1-c1ccc(CN2CCOCC2)cc1 [Luminespib] + Nc1nc2[nH]cc(CCc3ccc(C(=O)N[C@@H](CCC(=O)O)C(=O)O)cc3)c2c(=O)[nH]1 [Pemetrexed] (partner 0.2 µM)
relative viability (H3255; first compound 0.002 µM): 0.579
relative viability (H3255; first compound 0.006325 µM): 0.497
relative viability (H3255; first compound 0.02 µM): 0.529
relative viability (H3255; first compound 0.06325 µM): 0.536
relative viability (H3255; first compound 0.2 µM): 0.335
relative viability (NCI-H2085; first compound 0.002 µM): 0.908
relative viability (NCI-H2085; first compound 0.006325 µM): 0.893
relative viability (NCI-H2085; first compound 0.02 µM): 0.698
relative viability (NCI-H2085; first compound 0.06325 µM): 0.309
relative viability (NCI-H2085; first compound 0.2 µM): 0.261
relative viability (NCI-H2087; first compound 0.002 µM): 0.708
relative viability (NCI-H2087; first compound 0.006325 µM): 0.627
relative viability (NCI-H2087; first compound 0.02 µM): 0.639
relative viability (NCI-H2087; first compound 0.06325 µM): 0.152
relative viability (NCI-H2087; first compound 0.2 µM): 0.133
relative viability (LXF-289; first compound 0.002 µM): 0.91
relative viability (LXF-289; first compound 0.006325 µM): 0.915
relative viability (LXF-289; first compound 0.02 µM): 1.09
relative viability (LXF-289; first compound 0.06325 µM): 0.333
relative viability (LXF-289; first compound 0.2 µM): 0.136
relative viability (HCC-15; first compound 0.002 µM): 0.219
relative viability (HCC-15; first compound 0.006325 µM): 0.236
relative viability (HCC-15; first compound 0.02 µM): 0.214
relative viability (HCC-15; first compound 0.06325 µM): 0.193
relative viability (HCC-15; first compound 0.2 µM): 0.137
relative viability (NCI-H1437; first compound 0.002 µM): 0.305
relative viability (NCI-H1437; first compound 0.006325 µM): 0.305
relative viability (NCI-H1437; first compound 0.02 µM): 0.347
relative viability (NCI-H1437; first compound 0.06325 µM): 0.266
relative viability (NCI-H1437; first compound 0.2 µM): 0.156
relative viability (NCI-H23; first compound 0.002 µM): 0.743
relative viability (NCI-H23; first compound 0.006325 µM): 0.655
relative viability (NCI-H23; first compound 0.02 µM): 0.391
relative viability (NCI-H23; first compound 0.06325 µM): 0.139
relative viability (NCI-H23; first compound 0.2 µM): 0.14
relative viability (NCI-H661; first compound 0.002 µM): 0.921
relative viability (NCI-H661; first compound 0.006325 µM): 0.863
relative viability (NCI-H661; first compound 0.02 µM): 0.966
relative viability (NCI-H661; first compound 0.06325 µM): 0.651
relative viability (NCI-H661; first compound 0.2 µM): 0.318
relative viability (PC-14; first compound 0.002 µM): 0.148
relative viability (PC-14; first compound 0.006325 µM): 0.175
relative viability (PC-14; first compound 0.02 µM): 0.132
relative viability (PC-14; first compound 0.06325 µM): 0.0853
relative viability (PC-14; first compound 0.2 µM): 0.0503
relative viability (PC-3 [JPC-3]; first compound 0.002 µM): 0.706
relative viability (PC-3 [JPC-3]; first compound 0.006325 µM): 0.342
relative viability (PC-3 [JPC-3]; first compound 0.02 µM): 0.681
relative viability (PC-3 [JPC-3]; first compound 0.06325 µM): 0.357
relative viability (PC-3 [JPC-3]; first compound 0.2 µM): 0.272
relative viability (NCI-H2228; first compound 0.002 µM): 0.346
relative viability (NCI-H2228; first compound 0.006325 µM): 0.405
relative viability (NCI-H2228; first compound 0.02 µM): 0.257
relative viability (NCI-H2228; first compound 0.06325 µM): 0.079
relative viability (NCI-H2228; first compound 0.2 µM): 0.136
relative viability (NCI-H2009; first compound 0.002 µM): 1.16
relative viability (NCI-H2009; first compound 0.006325 µM): 0.973
relative viability (NCI-H2009; first compound 0.02 µM): 1.17
relative viability (NCI-H2009; first compound 0.06325 µM): 0.901
relative viability (NCI-H2009; first compound 0.2 µM): 0.0692
relative viability (HCC-366; first compound 0.002 µM): 0.169
relative viability (HCC-366; first compound 0.006325 µM): 0.156
relative viability (HCC-366; first compound 0.02 µM): 0.366
relative viability (HCC-366; first compound 0.06325 µM): 0.0354
relative viability (HCC-366; first compound 0.2 µM): 0.0333
relative viability (NCI-H2342; first compound 0.002 µM): 0.776
relative viability (NCI-H2342; first compound 0.006325 µM): 0.755
relative viability (NCI-H2342; first compound 0.02 µM): 0.548
relative viability (NCI-H2342; first compound 0.06325 µM): 0.749
relative viability (NCI-H2342; first compound 0.2 µM): 0.454
relative viability (LC-2-ad; first compound 0.002 µM): 0.251
relative viability (LC-2-ad; first compound 0.006325 µM): 0.298
relative viability (LC-2-ad; first compound 0.02 µM): 0.26
relative viability (LC-2-ad; first compound 0.06325 µM): 0.213
relative viability (LC-2-ad; first compound 0.2 µM): 0.205
relative viability (COR-L23; first compound 0.002 µM): 0.19
relative viability (COR-L23; first compound 0.006325 µM): 0.187
relative viability (COR-L23; first compound 0.02 µM): 0.215
relative viability (COR-L23; first compound 0.06325 µM): 0.196
relative viability (COR-L23; first compound 0.2 µM): 0.101
relative viability (SK-MES-1; first compound 0.002 µM): 0.962
relative viability (SK-MES-1; first compound 0.006325 µM): 0.877
relative viability (SK-MES-1; first compound 0.02 µM): 0.517
relative viability (SK-MES-1; first compound 0.06325 µM): 0.153
relative viability (SK-MES-1; first compound 0.2 µM): 0.177
relative viability (HCC-827; first compound 0.002 µM): 0.22
relative viability (HCC-827; first compound 0.006325 µM): 0.27
relative viability (HCC-827; first compound 0.02 µM): 0.236
relative viability (HCC-827; first compound 0.06325 µM): 0.159
relative viability (HCC-827; first compound 0.2 µM): 0.158
relative viability (LCLC-103H; first compound 0.002 µM): 0.441
relative viability (LCLC-103H; first compound 0.006325 µM): 0.445
relative viability (LCLC-103H; first compound 0.02 µM): 0.535
relative viability (LCLC-103H; first compound 0.06325 µM): 0.486
relative viability (LCLC-103H; first compound 0.2 µM): 0.472
relative viability (NCI-H1975; first compound 0.002 µM): 0.315
relative viability (NCI-H1975; first compound 0.006325 µM): 0.307
relative viability (NCI-H1975; first compound 0.02 µM): 0.34
relative viability (NCI-H1975; first compound 0.06325 µM): 0.137
relative viability (NCI-H1975; first compound 0.2 µM): 0.153
relative viability (NCI-H1666; first compound 0.002 µM): 0.876
relative viability (NCI-H1666; first compound 0.006325 µM): 0.799
relative viability (NCI-H1666; first compound 0.02 µM): 0.908
relative viability (NCI-H1666; first compound 0.06325 µM): 0.833
relative viability (NCI-H1666; first compound 0.2 µM): 0.911
relative viability (UMC-11; first compound 0.002 µM): 0.737
relative viability (UMC-11; first compound 0.006325 µM): 0.843
relative viability (UMC-11; first compound 0.02 µM): 0.762
relative viability (UMC-11; first compound 0.06325 µM): 0.322
relative viability (UMC-11; first compound 0.2 µM): 0.161
